Data: patent US11820973B2, “Methods and system for interfering with viability of bacteria and related compounds and compositions” (CALIFORNIA INSTITUTE OF TECHNOLOGY, priority 2011, dated 2023)
Entries after “also recorded” stand apart in the source; their conditions may differ.

Columns and labels:
[1] = tested on: P. aeruginosa PA14 biofilm; assay: MBEC assay, anaerobic biofilm prevention; format: cell-based, Pseudomonas aeruginosa
Description: (§1) In some examples, biofilm prevention and dissolution were measured via a high-throughput biofilm assay (MBEC Physiology and Genetics Assay) consisting of a 96-well plate into which a 96-peg plastic lid fits. This lid also fits over a standard 96-well plate, which was subsequently used to test the efficacy of iron chelators. Inoculum was prepared by diluting (30-fold) a 1.0 McFarland suspension of P. aeruginosa PA14 in TSB. 150 μl, was dispensed into each of the 60 inner wells, while 200 μl, of sterile trypticase soy broth (TSB) was placed in each perimeter well. For dissolution experiments, plates were incubated at 37° C. for 24 h, and were transferred to an anaerobic chamber for 24 h at 37° C. in anaerobic TSB containing 50 mM KNO3. Biofilms were then exposed to conalbumin and/or Ferrozine® for 24 h. Each treatment was complemented with the addition of 80 μM ferrous ammonium sulfate. After treatment, lids were rinsed once in 50 mM HEPES, air dried for 10 min and quantified by crystal violet staining. For biofilm prevention, anaerobic inoculum was amended with conalbumin and/or Ferrozine®. Media was replaced every 24 h by transferring the MBEC lid to a sterile plate containing growth media+/− treatments, and biofilms were allowed to develop for 168 h. Biomass was quantified as described above. Biological triplicates and six technical replicates (n=18) were used for each treatment.

P. aeruginosa = assay: Planktonic growth rates with iron chelators; format: cell-based, Pseudomonas aeruginosa
[2] = tested on: P. aeruginosa PA14 mature biofilms; assay: MBEC assay, dissolution of mature biofilms; format: cell-based, Pseudomonas aeruginosa; settings: 100 or 200 μM Ferrozine®; 24 h exposure
Description: as §1

[3] = tested on: P. aeruginosa PA14 Δphz mutant; assay: Intracellular NADH/NAD^+ ratio in stationary phase cultures; format: cell-based, Pseudomonas aeruginosa; settings: for Effect on intracellular NADH/NAD^+ ratios: stationary phase, 30 mM nitrate, pyocyanin in the micromolar range
Description: (A) Growth and pyocyanin production for wild type P. aeruginosa PA14 grown aerobically in 10 ml LB in 18×150 mM tubes. (B) NADH/NAD^+ ratios for cultures grown under the same conditions as those described in part (A). At 7 hours, pyocyanin production in the wild type cultures was visible by eye. 45 μM (half the expected final concentration) was added to the Δphz cultures to be tested for complementation, and 15 mM KNO3 was added to cultures to be tested for the effect of an additional electron acceptor. At 9 hours, pyocyanin in the wild type cultures had increased to near-maximum concentrations, so a second dose of pyocyanin or KNO3 was added to the appropriate cultures, for final concentrations of 90 μM and 30 mM, respectively. Water was added to negative controls. Eleven hours after inoculation, and 2 hours after the addition of the final dose of pyocyanin, NAD(H) was extracted and assayed for each culture. (C), NADH/NAD^+ ratios for cultures treated as in part (B), but with varying concentrations of pyocyanin added. (D) NADH and NAD^+ concentrations for cultures described in (B), normalized to OD (500 nm). Error bars represent the standard deviations of triplicate samples. OD, optical density. wt, wild type.
Two×1 ml of culture were sampled into two separate microcentrifuge tubes and centrifuged at 16,000×g for 1 min. Supernatant was removed and pellets were resuspended in 300 μl of 0.2 M NaOH (for NADH extraction) or 0.2 M HCl (for NAD^+ extraction). […] Supernatants were transferred to fresh tubes and stored at −80° C. until quantification.
A master reagent mix was prepared with 1× Bicine buffer (2.0 M, pH 8.0), 8× water, 1×80 mM EDTA, 2×100% EtOH, 2×4.2 mM thiazolyl blue (MTT), and 4×16.6 mM phenazine ethosulfate. […] The microtiter plate was incubated at 30° C., mixed by brief shaking, and read every 30-60 seconds for absorbance at 570 nm, which is the spectral peak of MTT that increases upon reduction. Slopes arising from plots of absorbance at 570 nm over time were generated for NADH and NAD^+ standards as well as all samples. […]

[4] = tested on: P. aeruginosa PA14 phenazine null strain (Δphz); assay: Flow cell biofilm development, phenazine null strain, 1% TSB; settings: 10 μM PCA in the medium flow of the Δphz mutant; by day 6
[5] = tested on: P. aeruginosa PA14 wild type; assay: Flow cell biofilm development, wild type, 1% TSB with or without conalbumin; settings: wild type; for Rescue of the conalbumin-induced biofilm defect: 10 μM phenazine added to conalbumin-treated 1% TSB, 6 days
[6] = tested on: P. aeruginosa PA14 wild-type colonies; assay: Colony biofilm morphology, wild type; format: cell-based, Pseudomonas aeruginosa; settings: 0.2 M of either compound added to the agar
Description: FIG. 8. […] Each day colonies from three independent experiments were scanned and their surface coverage was determined. Representative images of colonies at day 2, 4 and 6 are shown (A; scale bar is 1 cm). The data in (B) show the average surface coverage and standard deviation for the three independent experiments. (C) Phenazine titrations. […] Surface coverage of colonies from three independent experiments was determined after incubation at 20° C. for 7 days. Bars indicate the standard deviation.
Colony biofilms were grown on agar containing 1% tryptone as previously described. Three colonies from independent spottings were documented for 8 days using an Epson scanner.

[7] = tested on: P. aeruginosa PA14 Δphz1/2 colonies; assay: Colony biofilm morphology and surface coverage, Δphz1/2; format: cell-based, Pseudomonas aeruginosa; settings: for Effect on rugosity and surface coverage of colonies: 0.2 M of either compound added to the agar
[8] = tested on: P. aeruginosa PA14 wild type; assay: Swarming motility, wild type; format: cell-based, Pseudomonas aeruginosa; settings: 100 μM in the swarming agar
Description: (§2) FIG. 6. Δphz1/2 has increased swarming motility. Quantification of swarming motility. Images of three swarming plates for each strain or condition were captured, exported to Adobe Photoshop and the agar surface covered by the swarms was quantified using the Analysis Tools.
(§3) Swimming, swarming and twitching motilities were determined as previously described.

[9] = tested on: P. aeruginosa PA14 Δphz1/2; assay: Swarming motility, Δphz1/2; format: cell-based, Pseudomonas aeruginosa; settings: 100 μM in the swarming agar
Description: as §2, §3

[10] = tested on: P. aeruginosa PA14 siderophore null strain (ΔpvdAΔpchE); assay: Flow cell biofilm development, siderophore null strain, 1% TSB; settings: 10 μM PYO
[11] = tested on: Pseudomonas aeruginosa genes/operons; assay: DNA microarrays and quantitative RT-PCR; format: cell-based; settings: P. aeruginosa PA14
Description: Strikingly, mexGHI-opmD and PA2274 were previously shown to be regulated by the PA14 quorum sensing network that controls the production of virulence factors (including phenazines). Through mutational analysis, it is shown that pyocyanin is the physiological signal for the upregulation of these quorum sensing controlled genes during stationary phase and that the response is mediated by the transcription factor SoxR. Our results implicate phenazines as signaling molecules in both P. aeruginosa PA14 and PAO1. Examples are shown in the paper: Dietrich et al. 2006, The phenazine pyocyanin is a terminal signaling factor in the quorum sensing network of Pseudomonas aeruginosa, Molecular Microbiology Vol. 61, No. 5, page 1308-1321, incorporated herein by reference in its entirety.

[12] = tested on: P. aeruginosa PA14 Δphz mutant; assay: Pyruvate excretion, HPLC of culture filtrates; format: cell-based, Pseudomonas aeruginosa; settings: 50 μM pyocyanin added to the Δphz mutant upon entry into stationary phase
Description: FIG. 13. Wild type P. aeruginosa PA14 excretes pyruvate in stationary phase, and addition of pyocyanin to Δphz mutant cultures restores the pyruvate excretion phenotype. Cultures were inoculated into MOPS synthetic medium amended with 50 mM glucose (initial OD (500 nm)=0.03). To complement pyruvate excretion, 50 μM pyocyanin was added to the Δphz culture at the time when pyocyanin reached its maximum concentration in the wild type cultures (approximately 12 hours after inoculation). 20 μl of culture filtrates at the 24-hour time point were loaded onto an anion exchange column and subjected to an isocratic gradient in 5 mM H2SO4. Pyruvate peaks (1305, 1310) are indicated by arrows. The elution time of pyruvate drifts slightly but averages around 10.5 minutes. Results shown are representative of three separate experiments. Other peak identities are described in the text.
Two hundred μl were sampled from MOPS-glucose cultures (10 ml in an 18×150 mm test tube) at regular intervals and filtered (0.2 μm pore). In cases where repeated sampling from the same culture would alter the total culture volume by more than 10%, multiple identical cultures were inoculated from the same pre-culture and sampled sequentially. […] Compounds were detected by UV absorbance at 210 nm. Absolute concentrations of pyruvate were calculated using a standard curve for pyruvate diluted in MOPS buffer. […]

[13] = tested on: P. aeruginosa PA14 Δphz1/2; assay: Flow cell biofilms in 10% LB, COMSTAT analysis; format: cell-based, Pseudomonas aeruginosa
Description: Flow cell biofilms were grown under constant flow at 22° C. in 1.5×4×34 mm flow cells. Continuous flow of 10% LB was supplied with a peristaltic pump at a constant rate of […]. An early stationary-phase culture was diluted to an optical density at 500 nm of around 0.1 and 300 μl were inoculated into the flow cell. Strains expressing eyfp constitutively were used to visualize the biofilms. Upon inoculation, cells were allowed to attach in the absence of flow for 1.5 h before flow was resumed. Developing biofilms were imaged in 3 dimensions using a Leica confocal microscope. eYFP was excited with a 488 nm laser beam kept at constant intensity throughout the experiment, and emission from 510 to 618 nm was collected. Routinely, the Applicant observed that the distribution of bacterial cells throughout the colonized surface varied depending on the region of the flow cell, probably due to factors such as flow or accumulation of planktonic cells. To assure reproducibility, all images were acquired from an area set in the middle of the flow cell. Three images of duplicate flow cell lines were recorded and at least two independent experiments were performed.
To measure the impact of phenazines on biofilm formation directly, a flow cell system was first used to grow wild-type and Δphz1/2 biofilms. In this system, the wild type formed heterogeneous biofilms that after 4 days developed large and abundant microcolonies (FIG. 7A). Biofilms of Δphz1/2 were flatter and consisted of fewer and smaller aggregates scattered throughout the field of view (FIG. 7B). The morphology of 4-day-old biofilms was analyzed using COMSTAT. A fixed threshold value and connected volume filtration were used for all image stacks. Table 6 summarizes the values calculated for mean biofilm thickness, substratum coverage, number of microcolonies at the substratum, surface-to-volume ratio and maximum biofilm thickness for three independent experiments. […] PCA was not tested under these conditions. The mean thickness, the number of microcolonies and the total biomass volume all increased, reaching numbers similar or even higher than those observed for the wild type (Table 6).

[14] = 4 day-old biofilms, Δphz1/2, 25 μM pyocyanin

For `O.O=S(=O)([O-])c1ccc(-c2nc(-c3ccccn3)nnc2-c2ccc(S(=O)(=O)O)cc2)cc1.[Na+]` [Ferrozine®, 3-(2-Pyridyl)-5,6-diphenyl-1,2,4-triazine-p,p′-disulfonic acid monosodium salt hydrate], which “Reduction of biofilm accumulation” value ([1]; 100 μM Ferrozine®, ˜10 μM Fe(II) and 10 μM Fe(III) present) is on record?
Its value is 24%.

And the “Reduction of biofilm accumulation” value ([1]; 200 μM Ferrozine®)?
The value was “reduced it slightly further”.

What about the “Effect on planktonic growth rates” value (P. aeruginosa) of the same molecule?
The value was “Neither compound affected planktonic growth rates”.

And the “Dissolution of mature biofilm” value [2]?
The value was ~20%.

For `O=[N+]([O-])[O-].[K+]` [Nitrate, KNO3], which “Effect on intracellular NADH/NAD^+ ratios” value [3] is on record?
The value was “effected decreases in intracellular NADH/NAD^+ ratios”.

How did the “Increase of biofilm biomass” value [4] turn out when `O=C(O)c1cccc2nc3ccccc3nc12` [PCA, Phenazine-1-carboxylic acid] was run?
Its value is “four times”.

What about the “Rescue of the conalbumin-induced biofilm defect” value [5] of the same molecule?
The value was “rescued the defect”.

What about the “Increase of biofilm biomass compared to biofilms treated with conalbumin alone” value ([5]; PCA added to conalbumin-treated medium, day 6) of the same molecule?
The value was 13 factor.

And the “Wild type biofilm development with PCA added to the control medium” value ([5]; no conalbumin)?
The value was “developed similarly with respect to structure and biomass regardless of whether PCA was added”.

What about the “Effect on the structure of colonies” value [6] of the same molecule?
The value was “did not noticeably affect the structure of wild-type colonies”.

And the “Effect on surface coverage of colonies” value ([7]; 0.1M PCA, titration)?
The value was “sufficient to decrease surface coverage of Δphz1/2 colonies to wild-type levels”.

What about the “Effect on rugosity and surface coverage of colonies” value [7] of the same molecule?
The value was “significantly decreased rugosity and surface coverage of Δphz1/2 colonies”.

What about the “Effect on surface coverage of colonies” value ([7]; higher concentrations of PCA (up to 0.4M)) of the same molecule?
Its value is “had no additional effects”.

And the “Effect on swarming motility” value [8]?
Its value is “had no effect on the wild type”.

And the “Effect on swarming motility” value [9]?
Its value is “significantly decreased the motility of the Δphz1/2 mutant”.

What does the source list for `Cn1c2cccc(=O)c-2nc2ccccc21` [PYO, Pyocyanin]?
Effect on NADH/NAD^+ ratio ([3]; 90 μM oxidized pyocyanin added to Δphz mutant cultures): reduced the NADH/NAD^+ ratio to the wild type level; Effect on intracellular NADH/NAD^+ ratios [3]: effected decreases in intracellular NADH/NAD^+ ratios; Rescue without Fe(OH)3(s) relative to rescue with Fe(OH)3(s) addition [10]: 2 times; Rescue of the conalbumin-induced biofilm defect [5]: did not rescue the conalbumin-induced biofilm defect; Effect on the structure of colonies [6]: did not noticeably affect the structure of wild-type colonies; Effect on gene expression [11]: elicits the upregulation of genes/operons that function in transport; also recorded: downregulates genes involved in ferric iron acquisition; Pyruvate excretion phenotype [12]: complemented the pyruvate excretion phenotype; Increased surface coverage compared to wild-type colonies ([7]; 0.1 M pyocyanin): 50%; Effect on rugosity and surface coverage of colonies [7]: significantly decreased rugosity and surface coverage of Δphz1/2 colonies; Agar surface covered more than wild-type colonies ([7]; pyocyanin 0.2M or higher): 35%; Effect on Δphz1/2 flow cell biofilms ([13]; 25 μM pyocyanin): larger microcolonies and thicker biofilms resulted; % Coverage at substratum [13, 14]: 15.2 ± 2.46%; Average colony volume [13, 14]: 8170 μm^3; Average size of colonies at substratum [13, 14]: 102.6 ± 31 μm^2; Average thickness [13, 14]: 5.6 ± 1.6; Maximum thickness [13, 14]: 57.5 ± 1.9; Roughness coefficient [13, 14]: 1.3; Surface to volume ratio [13, 14]: 6.6 ± 0.6 μm^2/μm^3; Total biomass ([13]; 4 day-old biofilms, Δphz1/2, 25 μM pyocyanin in the medium from the beginning): 4.3 ± 1 μm^3/μm^2; Number of microcolonies ([13]; 4 day-old biofilms, Δphz1/2, 25 μM pyocyanin, minimum microcolony size at the substratum 10 μm^2): 8 ± 1.5; Effect on swarming motility [8]: had no inhibitory effect on swarming of either the wild type or Δphz1/2; Effect on swarming motility [9]: had no inhibitory effect on swarming of either the wild type or Δphz1/2
